Tests used:
rats [1] = test: Forced swim test (FST); assay type: in vivo, male Wistar rats; settings: rat; for effect on immobility in FST / Immobility time: acute 1 mg/kg i.p.; for Immobility time: 60 min before test, 5 min session, vehicle 255.9 ± 8.6
Procedure: The rats were injected for 21 consecutive days at a dose of 1 mg/kg, similar to the dose used in acute treatment, as per data presented in Supplementary Materials (Table S1). The FST was conducted according to the method of Porsolt. On the first day of the experiment, the animals were gently placed individually for 15 min in Plexiglas cylinders (40 cm high, 18 cm in diameter) containing 15 cm of water maintained at 23–25 °C. On removal from water, the rats were placed for 30 min in a Plexiglas box under a 60 W bulb to dry. On the following day (24 h later), the rats were replaced in the cylinder and the total duration of immobility was recorded during the whole 5 min test period. Immobility was assigned when no additional activity was observed other than that necessary to keep the rat’s head above the water. Fresh water was used for each animal.
FST after acute administration of the investigated compounds
Rats were injected 60 min before the test at a dose of 1 mg/kg. FST was carried out according to the method of Porsolt, and the same procedure was used for chronic treatment.
Table S1. Effect of acute treatment of PQA-AZ4, PQA-AZ6, and PQ-10 on the immobility time in the […]
Compound (mg/kg) Immobility time (s)
Compounds were injected i.p. 60 min before the test. Values represent the means ± SEM of immobility in the FST during a 5 min test session. The data were analyzed using one -way ANOVA, followed by Bonferroni‘s post hoc test; NS = nonsignificant; N=7-8.

Bdnf gene = Bdnf gene expression in brain structures (RT-qPCR, ex vivo); design: species or system rats; settings: rat, 1 mg/kg/day i.p., 21 days; for Bdnf expression upregulation vs control, hippocampus: hippocampus (Hipp); for Bdnf expression upregulation vs control, prefrontal cortex: prefrontal cortex (PFX)
Procedure: Animals in all treatment groups were sacrificed by rapid decapitation immediately after the behavioral tests, when the brains and blood samples were collected. For quantitative reverse transcription-polymerase chain reaction (RT-qPCR), the brains of rats were rapidly removed, and the hippocampus and prefrontal cortex were dissected on an ice-cold glass plate. The tissues were frozen in dry ice and stored at −80 °C until required.
The total RNA was extracted from tissues using an RNA Isolation kit (Thermo Fisher Scientific, Rockford, IL, USA), and its concentration was normalized to 20 ng/μL. Reverse transcription was performed with a High-Capacity Reverse Transcription Kit (Life Technologies, Grand Island, NY, USA). A qPCR fast 96-well reaction plate was used for the process with TaqMan Gene Expression assay (Life Technologies) for brain-derived neurotrophic factor Bdnf (Rn02531967_s1) on an Applied Biosystems® 7500 Fast Real-Time PCR Instrument (Applied Biosystems, Foster City, CA, USA), according to the manufacturer’s protocol. Glyceraldehyde-3-phosphate dehydrogenase, Gapdh (Rn01775763_g1), was selected as endogenous control, based on the pilot experiment. Relative normalized expression was calculated using the ΔΔCq method.

[2] = tested on: (+)-MK-801-induced memory deficits; test: Novel object recognition (NOR) test in (+)-MK-801 treated rats; assay type: in vivo, male Wistar rats; settings: rat; for Total Exploratory Time in T2 Session: vehicle 49.67 ± 4.63; for effect on (+)-MK-801-induced recognition memory deficits (discrimination index): 21 days, (+)-MK-801 0.1 mg/kg i.p.
Procedure: The rats were injected with the respective compounds for 21 consecutive days at the minimum active doses selected previously, based on acute treatment and assessment in the NOR test. The protocol for the NOR test was adapted from the original work and the test was performed according to the previously described protocol, 24 h after the last injection of the investigated compound. The discrimination index (DI) was calculated according to the formula:(7) DI=(EB−EA)/(EA+EB) where EB is the exploration time of novel object during the T2 session and EA is the exploration time of […].
PQA-AZ4 and PQA-AZ-6 were administered for 60 and 30 min, respectively, before the T1 phase (the familiarization phase). MK-801 was used to attenuate learning and was administered at a dose of 0.1 mg/kg (i.p.) 30 min before the familiarization phase (T1). The total exploration time in T2 was used to determine the influence of the treatment on the exploratory activity of the animals.

rats [3] = test: 18-hour spontaneous activity monitoring; assay type: in vivo, male Wistar rats; settings: rat, 1 mg/kg/day i.p.
Procedure: Spontaneous activity was measured on the 20th day of the treatment with a special, innovative, radio-frequency identification system (RFID-system), TraffiCage (TSE-Systems, Bad Homburg, Germany). The test was conducted according to the method described previously. The animals had RFID transmitters implanted subcutaneously, which tracked the time they spent in different areas of the cage.

Body weight measurement = assay type: in vivo, rats; settings: rat, 20-day administration, 1 mg/kg/day i.p.
Procedure: Body weight was measured every second day, immediately before the administration of drugs.

[4] = Serum glucose, triglyceride and cholesterol concentrations; assay type: in vivo, rats; settings: rat, 1 mg/kg/day i.p., 21 days
Procedure: (§1) The blood samples were collected immediately after decapitation and then centrifuged at 600× g […], 4 °C, to separate the plasma. The blood was used to determine metabolic parameters such as glucose, cholesterol, and triglyceride levels, together with liver enzymatic activity.
Standard enzymatic spectrophotometric tests (Biomaxima S.A., Lublin, Poland) were used to determine glucose, cholesterol, and triglyceride levels in the serum. In the presence of an appropriate enzyme, the substrate was converted to a colored compound. Absorbance was measured at a wavelength of 500 nm.

[5] = Liver enzymatic activity in serum (AlaT, AspaT, γGTP, ALP); assay type: in vivo, rats; settings: rat, 1 mg/kg/day i.p.; for activity of AlaT, AspaT, γGTP, ALP in serum: three-week administration
Procedure: as §1
To determine alanine aminotransferase (AlaT), […] (AspaT), alkaline phosphatase (ALP), or gamma-glutamyl transpeptidase (γGTP) activities in the serum, a standard enzymatic spectrophotometric test (Biomaxima S.A., Lublin, Poland) was used. Absorbance was measured at a wavelength of 340 nm (AlaT, AspaT) or 405 nm (ALP, γGTP).

5-HT1AR [6] = target: 5-HT1AR; design: method as in PMID 35248836; settings: read-out: Affinity 5-HT1AR Ki; cited from earlier work
5-HT7R = target: 5-HT7R; design: method as in PMID 35248836; settings: read-out: Affinity 5-HT7R Ki; cited from earlier work
PDE10A = tested on: PDE10A; design: method as in PMID 35248836; settings: read-out: Inhibition PDE10A IC50; cited from earlier work
5-HT1AR [7] = tested on: 5-HT1AR; design: method as in PMID 35248836; settings: cited from earlier work
[8] = chronic 1 mg/kg/day i.p., 21 days

COc1cccc(N2CCN(CC3CCN(c4ncnc5cc(OC)c(OC)cc45)C3)CC2)c1 (centres unmarked) [PQA-AZ4, 6,7-Dimethoxy-4-(3-((4-(3-methoxyphenyl)piperazin-1-yl)methyl)pyrrolidin-1-yl)quinazoline]
effect on immobility in FST (rats [1]): did not change the immobility
Immobility time (rats [1]): 244.8 ± 8.9 s
antidepressant-like activity in FST (rats [1]; [8]): inactive
Bdnf expression upregulation vs control, hippocampus (Bdnf gene): about 2.8 fold
Bdnf expression upregulation vs control, prefrontal cortex (Bdnf gene): about 10 fold
Total Exploratory Time in T2 Session ([2]; 1 mg/kg/day i.p. 21 days + (+)-MK-801 0.1 mg/kg): 28.83 ± 2.50 p < 0.01 vs. veh; p < 0.05 vs. (+)-MK-801 F(2,16) = 7.3773; p < 0.01
effect on (+)-MK-801-induced recognition memory deficits (discrimination index) ([2]; 1 mg/kg/day i.p.): restored recognition memory deficits
spontaneous activity vs vehicle (rats [3]; five and six hours after 20-day administration): increased
weight gain vs vehicle (Body weight measurement): No significant effect
serum glucose concentration vs vehicle [4]: did not significantly change
serum triglycerides concentration vs vehicle [4]: did not significantly change
total cholesterol concentration vs vehicle [4]: slight but statistically significant (p < 0.05) increase
activity of AlaT, AspaT, γGTP, ALP in serum [5]: no significant changes
Ki (5-HT1AR [6]): 18 nM
Ki (5-HT7R): 234 nM
IC50 (PDE10A): 7070 nM
Functional profile at 5-HT1AR (5-HT1AR [7]): partial agonists

COc1cc2ncnc(N3CCC(CN4CCN(c5ccc(Cl)cc5)CC4)C3)c2cc1OC (centres unmarked) [PQA-AZ6, 4-(3-((4-(4-Chlorophenyl)piperazin-1-yl)methyl)pyrrolidin-1-yl)-6,7-dimethoxyquinazoline]
effect on immobility in FST (rats [1]): did not change the immobility
Immobility time (rats [1]): 255.4 ± 7.0 s
antidepressant-like activity in FST (rats [1]; [8]): showed antidepressant-like properties
decrease of immobility vs. control group in FST (rats [1]; [8]): about 11%
Bdnf expression upregulation vs control, hippocampus (Bdnf gene): about 33 fold
Bdnf expression upregulation vs control, prefrontal cortex (Bdnf gene): ~12 fold
Total Exploratory Time in T2 Session ([2]; 3 mg/kg/day i.p. 21 days + (+)-MK-801 0.1 mg/kg): 39.57 ± 4.39 F(2,17) = 1.3060; NS s
effect on (+)-MK-801-induced recognition memory deficits (discrimination index) ([2]; 3 mg/kg/day i.p.): restored recognition memory deficits
spontaneous activity vs vehicle (rats [3]; eighteen hours after 20-day administration): decreased
weight gain vs vehicle (Body weight measurement): No significant effect
serum glucose concentration vs vehicle [4]: did not significantly change
serum triglycerides concentration vs vehicle [4]: did not significantly change
γGTP activity in serum vs control ([5]; 21 days): significantly lower
activity of AlaT, AspaT, γGTP, ALP in serum [5]: no significant changes
Ki (5-HT1AR [6]): 346 nM
Ki (5-HT7R): 136 nM
IC50 (PDE10A): 5680 nM
Functional profile at 5-HT1AR (5-HT1AR [7]): partial agonists
